Data reported in patent US4492693A, “Benzothienylglycyl cephalosporin derivatives” (priority 1983, dated 1985).
In brackets after ≈: the same amount, converted by molar mass. Where two headings read alike, the source gives them in different places.

Experiments:
Type in all cases: cell-based
Staph. aureus = assay: Agar Dilution MIC (Table I); settings: Staphylococcus aureus
Staph. epi = assay: Agar Dilution MIC (Table I); settings: read-out: Agar Dilution MIC
Strep. A = assay: Agar Dilution MIC (Table I); settings: read-out: Agar Dilution MIC
Strep. PN = assay: Agar Dilution MIC (Table I); settings: strain PARK
Strep. D = assay: Agar Dilution MIC (Table I); settings: for MIC: read-out: Agar Dilution MIC
Text: A typical and preferred compound provided by this invention is 7-(3-benzothienyl)glycylamido-3-methyl-3-cephem-4-carboxylic acid, the compound illustrated in Example 9. The antibacterial activity of this compound has been determined in standard in vitro agar dilution assays against a variety of gram positive and gram negative microorganism. The following Tables present typical minimum inhibitory concentrations (MIC's) in μg/ml for several compounds of the invention when evaluated against the indicated microorganisms. MIC's for several known compounds are also presented for comparison.
Agar Dilution MIC (μg/ml)

E. coli = assay: Agar Dilution MIC (Table I); settings: Escherichia coli
Klebsiella = assay: Agar Dilution MIC (Table I); settings: for MIC: Klebsiella, read-out: Agar Dilution MIC
Bacteroides fragilis = assay: Expanded anaerobic Spectrum MIC (Table IV)
Haemophilus influenzae = assay: Expanded H. influenzae Spectrum MIC (Table IV)
H. influ. = assay: Agar Dilution MIC (Table I); settings: read-out: Agar Dilution MIC
[1] = strain V41, read-out: Agar Dilution MIC
[2] = strain X1.1, read-out: Agar Dilution MIC
[3] = strain X400, read-out: Agar Dilution MIC
[4] = geometric mean over strains, read-out: MIC Geometric mean
[5] = mean over strains, read-out: MIC mean
[6] = geometric mean over strains, read-out: MIC Geometric Mean
[7] = read-out: Agar Dilution MIC, strain S13E

For `CC1=C(C(=O)O)N2C(=O)C(NC(=O)[C@H](N)c3csc4ccc(Cl)cc34)C2SC1` (stereo partly drawn) [Ex. 38B, D-7-(5-chloro-3-benzothienyl)glycylamido-3-methyl-3-cephem-4-carboxylic acid], the MIC (Staph. aureus; [1]) was 4 µg/mL (≈ 9.13 µM), the MIC (Staph. aureus; [2]) was 1 µg/mL (≈ 2.28 µM) and the MIC (Staph. aureus; [3]) was 8 µg/mL (≈ 18.3 µM). It also gave an MIC (Staph. epi; strain 222) of 2 µg/mL (≈ 4.57 µM), an MIC (Staph. epi; strain EPI1) of 4 µg/mL (≈ 9.13 µM) and an MIC (Strep. A; strain C203) of 0.25 µg/mL (≈ 0.571 µM). The MIC (Strep. PN) was 0.25 µg/mL (≈ 0.571 µM), the MIC (Strep. D; strain 2041) was 32 µg/mL (≈ 73.1 µM) and the MIC (Strep. D; strain X66) was 64 µg/mL (≈ 146 µM). For the same compound, the MIC (E. coli; strain EC14) was 64 µg/mL (≈ 146 µM), the MIC (E. coli; strain N10) was 64 µg/mL (≈ 146 µM) and the MIC (E. coli; strain TEM) was 64 µg/mL (≈ 146 µM). The MIC (Klebsiella; strain KAE) was 64 µg/mL (≈ 146 µM), the MIC (Klebsiella; strain X26) was 2 µg/mL (≈ 4.57 µM) and the MIC (Klebsiella; strain X68) was 64 µg/mL (≈ 146 µM).

Compound `CC1=C(C(=O)O)N2C(=O)[C@@H](NC(=O)[C@H](N)c3ccccc3)[C@H]2SC1` [Cephalexin] has an MIC (Staph. aureus; read-out: Agar Dilution MIC) of 128 µg/mL (≈ 368 µM), an MIC (Staph. aureus; [2]) of 4 µg/mL (≈ 11.5 µM) and an MIC (Strep. A) of 0.5 µg/mL (≈ 1.44 µM). The MIC (Strep. D) was 128 µg/mL (≈ 368 µM), the “Agar Dilution MIC” value (Strep. D; strain 2041) was 128 µg/mL and the MIC (E. coli; strain EC14) was 4 µg/mL (≈ 11.5 µM). The MIC (Klebsiella) was 128 µg/mL (≈ 368 µM), the MIC (Bacteroides fragilis; [4]) was 34 µg/mL (≈ 97.9 µM) and the MIC (Bacteroides fragilis; [5]) was 40 µg/mL (≈ 115 µM). For the same compound, the MIC (Bacteroides fragilis; strain 180-821, read-out: MIC) was 16 µg/mL (≈ 46.1 µM), the MIC (Bacteroides fragilis; strain 10668, read-out: MIC) was greater than 64 µg/mL and the MIC (Bacteroides fragilis; strain 10683, read-out: MIC) was greater than 64 µg/mL. It also gave an MIC (Bacteroides fragilis; strain 10695, read-out: MIC) of 64 µg/mL (≈ 184 µM), an MIC (Bacteroides fragilis; strain 10732, read-out: MIC) of 32 µg/mL (≈ 92.1 µM) and an MIC (Bacteroides fragilis; strain 10750, read-out: MIC) of 64 µg/mL (≈ 184 µM). It also gave an MIC (Bacteroides fragilis; strain 10774, read-out: MIC) greater than 64 µg/mL, an MIC (Bacteroides fragilis; strain 10817, read-out: MIC) of 16 µg/mL (≈ 46.1 µM) and an MIC (Bacteroides fragilis; strain 10837, read-out: MIC) of 16 µg/mL (≈ 46.1 µM). It also gave an MIC (Bacteroides fragilis; strain 107266, read-out: MIC) of 32 µg/mL (≈ 92.1 µM), an MIC (Bacteroides fragilis; strain 107268, read-out: MIC) of 16 µg/mL (≈ 46.1 µM) and an MIC (Bacteroides fragilis; strain 108133, read-out: MIC) of 32 µg/mL (≈ 92.1 µM). For the same compound, the MIC (Haemophilus influenzae; [6]) was 12 µg/mL (≈ 34.5 µM), the MIC (Haemophilus influenzae; [5]) was 22 µg/mL (≈ 63.3 µM) and the MIC (Haemophilus influenzae; strain 105) was 4 µg/mL (≈ 11.5 µM). For the same compound, the MIC (Haemophilus influenzae; strain 112, read-out: MIC) was 16 µg/mL (≈ 46.1 µM).

Work on `C=CC1=C(C(=O)O)N2C(=O)C(NC(=O)[C@H](N)c3csc4ccccc34)C2SC1` (stereo partly drawn) [Ex. 35, D-7-(3-Benzothienylglycylamido)-3-vinyl-3-cephem-4-carboxylic acid] yielded an MIC (Staph. aureus; [1]) of 16 µg/mL (≈ 38.5 µM), an MIC (Staph. aureus; [2]) of 2 µg/mL (≈ 4.81 µM) and an MIC (Staph. aureus; [3]) of 32 µg/mL (≈ 77 µM). It also gave an MIC (Staph. epi; strain 222) of 2 µg/mL (≈ 4.81 µM), an MIC (Staph. epi; strain EPI1) of 8 µg/mL (≈ 19.3 µM) and an MIC (Strep. D; strain 2041) of 32 µg/mL (≈ 77 µM). For the same compound, the MIC (Strep. D; strain X66) was 64 µg/mL (≈ 154 µM), the MIC (H. influ.; strain 76) was 1 µg/mL (≈ 2.41 µM) and the MIC (H. influ.; strain C.L.) was 8 µg/mL (≈ 19.3 µM). For the same compound, the MIC (E. coli; strain EC14) was 128 µg/mL (≈ 308 µM), the MIC (E. coli; strain N10) was 128 µg/mL (≈ 308 µM) and the MIC (E. coli; strain TEM) was 128 µg/mL (≈ 308 µM). The MIC (Klebsiella; strain KAE) was 128 µg/mL (≈ 308 µM), the MIC (Klebsiella; strain X26) was 8 µg/mL (≈ 19.3 µM) and the MIC (Klebsiella; strain X68) was 128 µg/mL (≈ 308 µM).

`CC1=C(C(=O)O)N2C(=O)C(NC(=O)[C@@H](N)c3csc4ccc(Cl)cc34)C2SC1` (stereo partly drawn) [Ex. 38A, L-7-(5-chloro-3-benzothienyl)glycylamido-3-methyl-3-cephem-4-carboxylic acid] was tested, and the MIC (Staph. aureus; [7]) was 16 µg/mL (≈ 36.5 µM), the MIC (Staph. aureus; [1]) was 32 µg/mL (≈ 73.1 µM) and the MIC (Staph. aureus; [2]) was 8 µg/mL (≈ 18.3 µM). It also gave an MIC (Staph. aureus; [3]) of 64 µg/mL (≈ 146 µM), an MIC (Staph. epi; strain 222) of 16 µg/mL (≈ 36.5 µM) and an MIC (Staph. epi; strain EPI1) of 16 µg/mL (≈ 36.5 µM). It also gave an MIC (Strep. A; strain C203) of 1 µg/mL (≈ 2.28 µM), an MIC (Strep. PN) of 2 µg/mL (≈ 4.57 µM) and an MIC (Strep. D; strain 2041) of 64 µg/mL (≈ 146 µM). For the same compound, the MIC (Strep. D; strain X66) was 64 µg/mL (≈ 146 µM), the MIC (H. influ.; strain 76) was 2 µg/mL (≈ 4.57 µM) and the MIC (H. influ.; strain C.L.) was 32 µg/mL (≈ 73.1 µM). The MIC (E. coli; strain EC14) was 64 µg/mL (≈ 146 µM), the MIC (E. coli; strain N10) was 64 µg/mL (≈ 146 µM) and the MIC (E. coli; strain TEM) was 64 µg/mL (≈ 146 µM). For the same compound, the MIC (Klebsiella; strain KAE) was 64 µg/mL (≈ 146 µM), the MIC (Klebsiella; strain X26) was 16 µg/mL (≈ 36.5 µM) and the MIC (Klebsiella; strain X68) was 64 µg/mL (≈ 146 µM).

In the case of `CC1=C(C(=O)O)N2C(=O)C(NC(=O)C(N)c3cc4ccccc4s3)C2SC1` (stereo not drawn) [Compound B, 7-(2-benzothienyl)glycylamido-3-methyl-3-cephem-4-carboxylic acid], the MIC (Bacteroides fragilis; [4]) was 15 µg/mL (≈ 37.2 µM), the MIC (Bacteroides fragilis; [5]) was 27 µg/mL (≈ 66.9 µM) and the MIC (Bacteroides fragilis; strain 180-821, read-out: MIC) was 2 µg/mL (≈ 4.96 µM). It also gave an MIC (Bacteroides fragilis; strain 10668, read-out: MIC) of 64 µg/mL (≈ 159 µM), an MIC (Bacteroides fragilis; strain 10695, read-out: MIC) of 16 µg/mL (≈ 39.7 µM) and an MIC (Bacteroides fragilis; strain 10732, read-out: MIC) of 4 µg/mL (≈ 9.91 µM). The MIC (Bacteroides fragilis; strain 10750, read-out: MIC) was 64 µg/mL (≈ 159 µM), the MIC (Bacteroides fragilis; strain 10774, read-out: MIC) was 64 µg/mL (≈ 159 µM) and the MIC (Bacteroides fragilis; strain 10817, read-out: MIC) was 4 µg/mL (≈ 9.91 µM). For the same compound, the MIC (Bacteroides fragilis; strain 10837, read-out: MIC) was 16 µg/mL (≈ 39.7 µM), the MIC (Bacteroides fragilis; strain 107266, read-out: MIC) was 4 µg/mL (≈ 9.91 µM) and the MIC (Bacteroides fragilis; strain 107268, read-out: MIC) was 16 µg/mL (≈ 39.7 µM). The MIC (Bacteroides fragilis; strain 108133, read-out: MIC) was 16 µg/mL (≈ 39.7 µM), the MIC (Haemophilus influenzae; [6]) was 2 µg/mL (≈ 4.96 µM) and the MIC (Haemophilus influenzae; [5]) was 3 µg/mL (≈ 7.44 µM). The MIC (Haemophilus influenzae; strain 102) was 16 µg/mL (≈ 39.7 µM), the MIC (Haemophilus influenzae; strain 104, read-out: MIC) was 2 µg/mL (≈ 4.96 µM) and the MIC (Haemophilus influenzae; strain 107) was 4 µg/mL (≈ 9.91 µM). The MIC (Haemophilus influenzae; strain 109, read-out: MIC) was 1 µg/mL (≈ 2.48 µM), the MIC (Haemophilus influenzae; strain 110) was 4 µg/mL (≈ 9.91 µM) and the MIC (Haemophilus influenzae; strain 112, read-out: MIC) was 8 µg/mL (≈ 19.8 µM). It also gave an MIC (Haemophilus influenzae; strain 113, read-out: MIC) of 2 µg/mL (≈ 4.96 µM) and an MIC (Haemophilus influenzae; strain 114, read-out: MIC) of 2 µg/mL (≈ 4.96 µM).

In the case of `CC1=C(C(=O)O)N2C(=O)C(NC(=O)[C@@H](N)c3csc4c(F)cccc34)C2SC1` (stereo partly drawn) [Ex. 21, L-7-(7-Fluoro-3-benzothienyl)glycylamido-3-methyl-3-cephem-4-carboxylic acid], the MIC (Staph. aureus; [7]) was 128 µg/mL (≈ 304 µM), the MIC (Staph. aureus; [1]) was 128 µg/mL (≈ 304 µM) and the MIC (Staph. aureus; [2]) was 32 µg/mL (≈ 75.9 µM). The MIC (Staph. aureus; [3]) was 128 µg/mL (≈ 304 µM), the MIC (Staph. epi) was 128 µg/mL (≈ 304 µM) and the MIC (Staph. epi; strain 222) was 64 µg/mL (≈ 152 µM). The MIC (Strep. A; strain C203) was 8 µg/mL (≈ 19 µM), the MIC (Strep. PN) was 16 µg/mL (≈ 38 µM) and the MIC (Strep. D) was 128 µg/mL (≈ 304 µM). The “Agar Dilution MIC” value (Strep. D; strain 2041) was 128 µg/mL, the MIC (H. influ.; strain 76) was 8 µg/mL (≈ 19 µM) and the MIC (H. influ.; strain C.L.) was 64 µg/mL (≈ 152 µM). For the same compound, the MIC (E. coli; strain EC14) was 128 µg/mL (≈ 304 µM), the MIC (E. coli; strain N10) was 128 µg/mL (≈ 304 µM) and the MIC (E. coli; strain TEM) was 128 µg/mL (≈ 304 µM). For the same compound, the MIC (Klebsiella) was 128 µg/mL (≈ 304 µM), the MIC (Klebsiella; strain X26) was 64 µg/mL (≈ 152 µM) and the “Agar Dilution MIC” value (Klebsiella; strain X68) was 128 µg/mL.
